Measurements reported in patent US10954549B2, “Detection and classification of an anticoagulant using a clotting assay” (Haemonetics Corporation, priority 2014, dated 2021).

Key:
Assay type in all cases: in vivo
[1] = test system: blood from a single human volunteer; test: Detection time (R time with Factor Xa) in volunteer blood before and after oral anticoagulant; details: 2 hours 30 minutes after 20 mg oral
Protocol: (§1) Blood from a single human volunteer was analyzed using thromboelastography with Factor Xa and ecarin before and after the volunteer was orally administered an anticoagulant.
(§2) For these studies, the normal ranges for the particular reagent (i.e., Factor Xa or ecarin) were determined using multiple donors known not to be taking any anticoagulant.
(§3) The human volunteer was known not to be taking (i.e., was not being administered) an anticoagulant. In this example, blood was taken from the volunteer before the volunteer was administered any anticoagulant. This is the “before” blood component sample. The volunteer was orally administered 20 mg rivaroxaban, an anti-Factor Xa anticoagulant. Two hours and thirty minutes after oral administration of the rivaroxaban, blood was drawn again from the volunteer. This is the “after” blood component sample.
(§4) The “before” and “after” samples were analyzed using thromboelastography in the presence of Factor Xa or in the presence of ecarin. When the R time is determined in the presence of Factor Xa, that time is called the detection time. When the R time is determined in the presence of ecarin, that time is called the classification time.

[2] = test system: blood from a single human volunteer; test: Classification time (R time with ecarin) in volunteer blood before and after oral anticoagulant; details: 2 hours 30 minutes after 20 mg oral
Protocol: as §1, §2, §3, §4

[3] = test system: porcine plasma; test: TEG 6S DTI channel R-time, porcine experimental trauma model; details: pre and post trauma; baseline 3.4±0.6 min
Protocol: The TEG®6S system (Haemonetics Corp., Braintree, Mass.) is based on viscoelasticity measurements using resonance frequency and disposable multi-channel microfluidic cartridges. Blood and plasma from healthy volunteers were spiked with dabigatran in the therapeutic range (in increasing concentrations) and tested with an OAC cartridge with an ecarin based, direct thrombin inhibitor (DTI) channel. This channel was also evaluated with porcine plasma from an experimental trauma model (n=6) where dabigatran levels were measured with dilute TT (Hemoclot®). TEG 6s R-time (reaction time) was correlated to the drug levels.

O=C(NC[C@H]1CN(c2ccc(N3CCOCC3=O)cc2)C(=O)O1)c1ccc(Cl)s1 [rivaroxaban, Rivaroxaban]
"after" detection time (R time, FXa reagent) [1]: approximately 4.4 minutes | "after" detection time relative to the reference range R time of 1.5 minutes [1]: 2.93 times | R of "after" blood versus Ecarin reference range (approximately 4.1 minutes upper boundary) [2]: within the Ecarin reference range

dabigatran
R-time following administration [3]: ≥ 21 ± 5.9 min
